Reference: US4550186A, “Binuclear copper (II) carboxylates formed from amine-carboxyboranes” (Duke University, priority 1983, dated 1985)

Experiments:
[1] = molecular target: T1, ribosomal ribonucleic acid polymerase (Mus musculus, UniProt O35134+P70700); assay: In vitro ribosomal ribonucleic acid polymerase activity; format: biochemical; conditions: 0.25 to 1.0 mM
T1 construct: enzymes isolated from nuclei; endogenous in cells; host or cells: Ehrlich ascites tumor cell nuclei, ammonium sulfate fraction
Method: CF1 male mice (~30 g) were implanted with 2×10^6 Ehrlich ascites tumor cells, intraperitoneally on Day 0. Compound I was suspended by homogenation in 0.05% polysorbate.80-water and administered intraperitoneally at 10 and 20 mg/kg for 9 days to determine its effectiveness for inhibition of tumor growth. Mice were sacrificed on Day 10, and the ascites fluid was collected from the peritoneal cavity. The volume and ascrit (packed cell volume) were determined for each animal and the percent inhibition of tumor growth was calculated. For the metabolic studies, mice were treated on Days 8 and 9 with 10 mg/kg of Compound I, intraperitoneally. The animal was sacrificed on Day 10 and the ascites fluid harvested. The in vitro metabolic studies were performed at […] final concentration of Compound I.
In vitro and in vivo nuclear deoxyribonucleic acid polymerase activity was determined on isolated Ehrlich ascites cell nuclei. The incubation was that described by Sawada et al [Can. Res., 34, 3341 (1974)] except that [methyl-^3 H] deoxythymidine triphosphate (82.4 Ci/mmol) was used. The acid insoluble nucleic acid was collected on GF/F filters and counted. Nuclear ribonucleic acid polymerase activities were determined on enzymes isolated from nuclei. […] The acid insoluble ribonucleic acid was collected on nitrocellulose filters and counted.

HMG CoA Reductase = molecular target: T2, HMG CoA Reductase (Mus musculus, UniProt Q01237); assay: In vitro liver enzyme study: HMG CoA reductase; format: biochemical; conditions: in vitro CF1 liver
T2 construct: 10% homogenates of CF1 male mouse liver; from tissue; host or cells: CF1 male mouse liver, post-mitochondrial supernatant
T2 sequence (Q01237 1-887): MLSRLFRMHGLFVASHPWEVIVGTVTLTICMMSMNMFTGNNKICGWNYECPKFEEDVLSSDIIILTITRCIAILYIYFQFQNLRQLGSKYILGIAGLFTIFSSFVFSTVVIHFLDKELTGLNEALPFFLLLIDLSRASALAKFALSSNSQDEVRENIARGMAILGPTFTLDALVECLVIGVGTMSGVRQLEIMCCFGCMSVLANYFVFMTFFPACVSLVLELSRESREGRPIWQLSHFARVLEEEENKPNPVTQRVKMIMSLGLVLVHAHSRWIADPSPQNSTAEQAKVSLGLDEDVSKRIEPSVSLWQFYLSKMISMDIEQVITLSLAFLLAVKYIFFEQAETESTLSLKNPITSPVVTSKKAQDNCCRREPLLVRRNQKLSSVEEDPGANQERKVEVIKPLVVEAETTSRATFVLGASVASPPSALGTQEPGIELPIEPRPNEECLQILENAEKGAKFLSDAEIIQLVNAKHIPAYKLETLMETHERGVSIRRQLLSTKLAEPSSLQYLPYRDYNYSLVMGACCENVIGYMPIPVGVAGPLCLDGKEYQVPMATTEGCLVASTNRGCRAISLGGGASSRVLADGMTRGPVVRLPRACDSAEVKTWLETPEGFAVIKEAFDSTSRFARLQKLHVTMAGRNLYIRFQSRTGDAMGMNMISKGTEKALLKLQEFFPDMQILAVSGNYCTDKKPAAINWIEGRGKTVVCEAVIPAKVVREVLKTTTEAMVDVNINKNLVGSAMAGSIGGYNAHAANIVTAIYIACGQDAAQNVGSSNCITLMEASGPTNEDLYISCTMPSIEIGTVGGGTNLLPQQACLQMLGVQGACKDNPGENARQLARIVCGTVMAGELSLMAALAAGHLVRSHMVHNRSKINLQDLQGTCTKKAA
Method: In vitro enzymatic studies were determined using 10% homogenates of CF1 male mouse liver with 50-200 μM of test drugs. In vivo enzymatic studies were determined using 10% homogenates of liver from CF1 male mice obtained after administering the agents for 16 days at a dose ranging from 2.5-20 mg/kg/day intraperitoneally. The liver homogenates for both in vitro and in vivo studies were prepared in 0.25M sucrose and 0.001M (ethylenedinitrilo)tetraacetic acid. Acetyl coenzyme A synthetase and adenosine triphosphate dependent citrate lyase activities were determined spectrophotometrically at 540 nm as the hydroxylamate of acetyl coenzyme A formed after 30 min at 37° C. Mitochondrial citrate exchange was determined by the procedure of Robinson et al [Eur. J. Biochem., 216, 63 (1970)] using ^14 C-sodium bicarbonate (41 mCi/mmol) incorporated into mitochondrial ^14 C-citrate after isolating rat mitochondria (9000 g×10 min) from the homogenates. The exchanges of the ^14 C-citrate were determined after incubating the mitochondrial fraction which was loaded with labeled citrate and test drugs for 10 min. Then the radioactivity was measured in the mitochondrial and supernantant fractions in scintillation fluid and expressed as a percentage. Cholesterol side chain oxidation was determined by the method of Kritchevsky and Tepper [Artherosclerosis, 18, 93 (1973)] using (26-^14 C) cholesterol (50 mCi/mmol) and mitochondria isolated from rat liver homogenates. […] Fatty acid synthetase activity was determined by the method of Brady et al [J. Biol. Chem., 235, 3093 (1960)] using [2-^14 C] malonyl-coenzyme A (37.5 mCi/mmol) which was incorporated into newly synthesized fatty acids that were extracted with ether and counted. Acyl transferase activity was determined with glycerol-3phosphate [L-2-^3 H(N)] […] HCl and counted. Phosphatidate phosphohydrolase activity was measured as the inorganic phosphate released after 30 min from phosphatidic acid by the method of Mavis et al [J. Lipid Res., 19, 467 (1978)]. […]

T1 sequence (P52432 whole entry): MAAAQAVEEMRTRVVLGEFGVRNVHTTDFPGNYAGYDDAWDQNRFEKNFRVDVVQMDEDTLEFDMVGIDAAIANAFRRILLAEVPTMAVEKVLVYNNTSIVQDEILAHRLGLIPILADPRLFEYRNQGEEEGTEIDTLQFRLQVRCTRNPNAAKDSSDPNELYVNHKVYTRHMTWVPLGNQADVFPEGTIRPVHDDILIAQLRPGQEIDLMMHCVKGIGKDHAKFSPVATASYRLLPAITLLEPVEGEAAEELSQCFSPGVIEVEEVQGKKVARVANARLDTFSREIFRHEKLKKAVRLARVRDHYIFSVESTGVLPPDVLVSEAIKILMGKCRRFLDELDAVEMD
T1 sequence (Q791N7 whole entry, further chain): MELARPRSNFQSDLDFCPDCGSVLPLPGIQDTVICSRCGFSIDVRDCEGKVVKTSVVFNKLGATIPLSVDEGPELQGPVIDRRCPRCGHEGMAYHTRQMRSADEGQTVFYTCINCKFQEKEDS
T1 sequence (P97304 whole entry, further chain): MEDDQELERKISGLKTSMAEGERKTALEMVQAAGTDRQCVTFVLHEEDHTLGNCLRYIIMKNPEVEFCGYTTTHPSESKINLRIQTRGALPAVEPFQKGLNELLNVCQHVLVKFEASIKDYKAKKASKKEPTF
T1 sequence (Q78WZ7 whole entry, further chain): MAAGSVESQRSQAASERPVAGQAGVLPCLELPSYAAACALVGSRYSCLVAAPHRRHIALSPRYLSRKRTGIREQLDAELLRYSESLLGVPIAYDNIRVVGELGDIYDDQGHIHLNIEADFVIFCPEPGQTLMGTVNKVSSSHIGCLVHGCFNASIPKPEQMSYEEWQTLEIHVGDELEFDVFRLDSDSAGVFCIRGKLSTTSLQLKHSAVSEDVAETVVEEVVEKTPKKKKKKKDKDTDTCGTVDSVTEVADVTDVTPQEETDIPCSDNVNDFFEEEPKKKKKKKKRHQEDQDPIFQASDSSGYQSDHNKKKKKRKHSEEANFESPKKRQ
T1 sequence (P70700 whole entry): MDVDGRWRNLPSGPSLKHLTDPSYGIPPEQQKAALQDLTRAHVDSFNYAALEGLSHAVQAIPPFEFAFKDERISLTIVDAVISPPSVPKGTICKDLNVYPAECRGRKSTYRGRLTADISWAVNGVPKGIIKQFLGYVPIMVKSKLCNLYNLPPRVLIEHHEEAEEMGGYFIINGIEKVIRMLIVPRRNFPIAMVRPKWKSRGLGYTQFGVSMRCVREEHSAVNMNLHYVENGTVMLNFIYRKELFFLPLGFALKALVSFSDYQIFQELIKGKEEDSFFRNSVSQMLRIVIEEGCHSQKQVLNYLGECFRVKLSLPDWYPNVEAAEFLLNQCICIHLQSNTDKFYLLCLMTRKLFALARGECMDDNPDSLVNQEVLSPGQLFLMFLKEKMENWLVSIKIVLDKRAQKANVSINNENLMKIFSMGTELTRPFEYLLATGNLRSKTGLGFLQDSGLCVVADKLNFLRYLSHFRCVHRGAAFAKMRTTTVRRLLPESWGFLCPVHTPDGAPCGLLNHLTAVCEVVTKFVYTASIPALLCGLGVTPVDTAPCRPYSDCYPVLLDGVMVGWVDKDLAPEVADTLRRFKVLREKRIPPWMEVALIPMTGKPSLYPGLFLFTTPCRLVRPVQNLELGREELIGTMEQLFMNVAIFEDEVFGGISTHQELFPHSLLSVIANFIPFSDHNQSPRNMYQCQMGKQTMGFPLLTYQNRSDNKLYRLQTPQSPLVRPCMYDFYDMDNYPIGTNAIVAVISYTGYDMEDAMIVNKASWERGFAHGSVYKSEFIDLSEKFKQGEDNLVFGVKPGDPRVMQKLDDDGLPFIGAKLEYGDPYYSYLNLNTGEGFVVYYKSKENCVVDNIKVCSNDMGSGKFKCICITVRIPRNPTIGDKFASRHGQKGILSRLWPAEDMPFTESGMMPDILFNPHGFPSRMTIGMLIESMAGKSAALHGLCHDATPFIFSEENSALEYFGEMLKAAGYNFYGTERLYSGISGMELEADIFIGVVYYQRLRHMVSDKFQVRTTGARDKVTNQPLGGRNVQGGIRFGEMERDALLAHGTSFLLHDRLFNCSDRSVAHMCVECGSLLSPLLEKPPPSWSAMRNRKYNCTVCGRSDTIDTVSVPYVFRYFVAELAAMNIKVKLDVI
T1 sequence (O35134 whole entry): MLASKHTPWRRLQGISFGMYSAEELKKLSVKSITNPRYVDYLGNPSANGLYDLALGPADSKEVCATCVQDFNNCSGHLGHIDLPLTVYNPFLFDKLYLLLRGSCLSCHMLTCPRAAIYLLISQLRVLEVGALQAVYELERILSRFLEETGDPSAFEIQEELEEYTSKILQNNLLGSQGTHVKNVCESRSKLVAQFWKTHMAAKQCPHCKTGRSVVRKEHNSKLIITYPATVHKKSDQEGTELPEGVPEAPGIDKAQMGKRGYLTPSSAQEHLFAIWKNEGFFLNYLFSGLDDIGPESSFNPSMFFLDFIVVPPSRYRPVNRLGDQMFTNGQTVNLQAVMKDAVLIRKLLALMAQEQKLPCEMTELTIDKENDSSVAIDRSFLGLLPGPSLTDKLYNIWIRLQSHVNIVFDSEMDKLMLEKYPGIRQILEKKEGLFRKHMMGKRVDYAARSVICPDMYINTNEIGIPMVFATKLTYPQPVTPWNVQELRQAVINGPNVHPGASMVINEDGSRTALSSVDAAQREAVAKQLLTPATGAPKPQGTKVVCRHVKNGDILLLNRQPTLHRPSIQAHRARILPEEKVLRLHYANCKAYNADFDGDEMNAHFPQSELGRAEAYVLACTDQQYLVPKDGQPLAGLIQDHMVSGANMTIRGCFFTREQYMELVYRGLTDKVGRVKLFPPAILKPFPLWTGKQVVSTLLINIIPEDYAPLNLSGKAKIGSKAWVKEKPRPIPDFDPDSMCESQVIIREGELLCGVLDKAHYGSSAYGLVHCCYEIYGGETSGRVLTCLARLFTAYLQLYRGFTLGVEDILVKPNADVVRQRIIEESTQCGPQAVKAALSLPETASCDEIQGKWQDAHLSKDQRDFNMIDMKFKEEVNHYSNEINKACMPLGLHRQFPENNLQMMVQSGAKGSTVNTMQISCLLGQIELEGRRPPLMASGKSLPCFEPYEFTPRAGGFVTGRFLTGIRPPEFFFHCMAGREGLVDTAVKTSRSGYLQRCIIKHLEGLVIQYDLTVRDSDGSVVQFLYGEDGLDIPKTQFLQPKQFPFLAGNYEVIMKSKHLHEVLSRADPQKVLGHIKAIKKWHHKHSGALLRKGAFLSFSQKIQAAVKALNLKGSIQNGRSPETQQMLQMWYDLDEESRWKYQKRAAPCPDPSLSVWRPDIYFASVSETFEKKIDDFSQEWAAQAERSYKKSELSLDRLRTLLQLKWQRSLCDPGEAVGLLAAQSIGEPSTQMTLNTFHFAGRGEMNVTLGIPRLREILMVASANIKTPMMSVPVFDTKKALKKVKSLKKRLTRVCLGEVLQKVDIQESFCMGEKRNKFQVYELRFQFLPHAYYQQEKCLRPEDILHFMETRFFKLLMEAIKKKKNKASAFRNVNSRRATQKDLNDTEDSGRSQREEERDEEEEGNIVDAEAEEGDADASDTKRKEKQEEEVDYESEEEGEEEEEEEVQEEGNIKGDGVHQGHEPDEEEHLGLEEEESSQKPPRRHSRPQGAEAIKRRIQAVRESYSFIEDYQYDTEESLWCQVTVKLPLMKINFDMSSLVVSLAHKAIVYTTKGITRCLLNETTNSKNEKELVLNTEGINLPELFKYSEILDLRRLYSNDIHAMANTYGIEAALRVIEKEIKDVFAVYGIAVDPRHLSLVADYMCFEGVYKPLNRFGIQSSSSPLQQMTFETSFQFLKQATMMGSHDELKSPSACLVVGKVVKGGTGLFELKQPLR

Substance: {Cu[(CH3)3 N.BH2 CO2 ]2.(CH3)3 N.BH2 COOH} [Compound I]
- ribosomal ribonucleic acid polymerase inhibition [1]: not inhibited
- HMG CoA Reductase (HMG CoA Reductase; 50 μM): 102 ± 8 Percent Control
- HMG CoA Reductase (HMG CoA Reductase; 100 μM): 101 ± 9 Percent Control
- HMG CoA Reductase (HMG CoA Reductase; 200 μM): 105 ± 8 Percent Control
